Measurements taken from article PMC4331368, “HZ08 Reverse P-Glycoprotein Mediated Multidrug Resistance In Vitro and In Vivo” (PLoS ONE, 2015).
Where “and” joins values, the source holds several entries; their conditions need not be identical. Identical values can stand only once.

Key:
KB-WT cells = test: Cell cytotoxicity assay (CCK-8), KB-WT; format: cell-based, human; conditions: for IC50: Homo sapiens
Description: (§1) Briefly, cells (2,000/well) were seeded in 96-well plate and cultured at 37°C in 5% CO2 for 24h. […] After 72 h of treatment, 15μL Cell Counting Kit-8 solution was added to each well followed by another 2 h of incubation. The absorbance at 450nm and 600nm were then measured using a SpectraMax M5 microplate reader. The curves of growth inhibition rate were fitted with GraphPad Prism 5 and the IC50 values were calculated. Each assay was conducted three times in quadruplicate

KB-VCR cells = test: Cell cytotoxicity assay (CCK-8), KB-VCR; format: cell-based, human; conditions: for IC50: Homo sapiens, 72 h; for IC50 / FR (fold-resistance): chemotherapeutic alone
Description: as §1

P-gp [1] = target: T1, P-gp (Homo sapiens, UniProt P08183); test: Calcein-AM P-gp inhibition assay in MDCK-MDR1 cells; format: cell-based; conditions: 2μM GF120918 = 100%
T1 construct: expressed in transfected cells; host or cells: MDCK-MDR1 cells (canine kidney cells)
Description: The calcein-AM assay was optimized from previous studies.[28, 29] MDCK-MDR1 cells were cultured as described above. Cells were seeded at 8,000 cells/well (100μl of culture medium) in 96-well flat clear bottom black polystyrene plates. The medium was changed 24h after seeding and the assay was performed 48 h later. On the day of study, the medium was removed and plates were washed three times with phosphate-buffered saline (PBS). Test compounds at various concentrations were added to plates in 50μl of transport buffer containing 0.5% DMSO as solvent. Plates were incubated at 37°C for 30 min. Calcein-AM was added in 50μl of PBS to yield a final concentration of 10μM.
P-gp inhibition was calculated as described previously.[29] The curves of inhibition rates were fitted with GraphPad Prism 5 and the IC50 values were calculated. Each assay was conducted three times in quadruplicate.

[2] = target: T2, recombinant human ABCB1 membranes (Homo sapiens, UniProt P08183); test: P-gp ATPase activity assay (Pgp-Glo, VER-stimulated); format: biochemical
T2 construct: purchased
From the text: Sodium orthovanadate (Na3VO4) was used as an ABCB1 ATPase inhibitor. […] Luminescence was initiated by ATP detection buffer.

KB-WT xenografts = test: KB-WT tumor xenograft model; format: in vivo, Balb/c nude mice; conditions: day 21, mean±SEM
From the text: (§2) All the animal experiments were approved by the Institutional Animal Care and Use Committee at China Pharmaceutical University (Permit Number: CPU1201P) and carried out in strict accordance with the recommendations in the Guide for the Care and Use of Laboratory Animals of AAALAC international. Animals were acclimated for 5 days prior to study initiation. […] If any animal was moribund due to treatment associated toxicity or tumor over-growth (≥ 2000 mm^3) before scheduled sacrifice, it would be euthanized. At the endpoint, the animals were euthanized by using CO2 and all efforts were made to minimize suffering.
(§3) Body weight and the tumor growth were monitored twice a week. Tumor size was measured to the nearest 0.1 mm using vernier caliper and applying the formula: Tumor volume = length × width^2 × 0.5. Efficacy data was graphically represented as the mean tumor volume ± standard error of the mean (SEM). Tumors were collected for further analysis after last measurement.

KB-VCR xenografts = test: KB-VCR tumor xenograft model; format: in vivo, Balb/c nude mice; conditions: for mean tumor volume / tumor weight: day 21
From the text: as §2, §3

P-gp [3] = target: T1, P-gp; test: MDCK-MDR1 monolayer transport assay; format: cell-based; conditions: dog
Description: MDCK-MDR1 cells could differentiate into columnar epithelium with tight junctions in three days later to form cell monolayer. […] If a drug was a P-gp substrate, its permeation from apical side (A) to basal side (B) would be inhibited and reduced, while the permeation from B to A would not be affected. When a P-gp inhibitor was added, the permeation of P-gp substrate from A to B could be increased.
MDCK-MDR1 cells were cultured in Dulbecco's MEM (DMEM) Medium supplemented with 10% fetal bovine serum (FBS) and 2 mM L-glutamine. […] The plates were incubated at 37°C with 5% CO2/95% air for 4 days and subsequently used for assays. […] Plates were incubated for 90 min in 5% CO2/95% air, 37°C CO2 incubator with slowly shaking (60 rpm). Apical and basolateral compartments were sampled at the end of the transport experiment and the tested substance concentrations in both compartments were determined by LC-MS/MS.
The apparent permeability (Papp) and efflux ratio were calculated based on the equations reported previously.[33]

[4] = KB-WT, chemotherapeutic alone, 72 h
[5] = 2 mg/kg modulator + VCR 2 mg/kg
[6] = 5 mg/kg modulator + VCR 2 mg/kg

T2 sequence (P08183 whole entry): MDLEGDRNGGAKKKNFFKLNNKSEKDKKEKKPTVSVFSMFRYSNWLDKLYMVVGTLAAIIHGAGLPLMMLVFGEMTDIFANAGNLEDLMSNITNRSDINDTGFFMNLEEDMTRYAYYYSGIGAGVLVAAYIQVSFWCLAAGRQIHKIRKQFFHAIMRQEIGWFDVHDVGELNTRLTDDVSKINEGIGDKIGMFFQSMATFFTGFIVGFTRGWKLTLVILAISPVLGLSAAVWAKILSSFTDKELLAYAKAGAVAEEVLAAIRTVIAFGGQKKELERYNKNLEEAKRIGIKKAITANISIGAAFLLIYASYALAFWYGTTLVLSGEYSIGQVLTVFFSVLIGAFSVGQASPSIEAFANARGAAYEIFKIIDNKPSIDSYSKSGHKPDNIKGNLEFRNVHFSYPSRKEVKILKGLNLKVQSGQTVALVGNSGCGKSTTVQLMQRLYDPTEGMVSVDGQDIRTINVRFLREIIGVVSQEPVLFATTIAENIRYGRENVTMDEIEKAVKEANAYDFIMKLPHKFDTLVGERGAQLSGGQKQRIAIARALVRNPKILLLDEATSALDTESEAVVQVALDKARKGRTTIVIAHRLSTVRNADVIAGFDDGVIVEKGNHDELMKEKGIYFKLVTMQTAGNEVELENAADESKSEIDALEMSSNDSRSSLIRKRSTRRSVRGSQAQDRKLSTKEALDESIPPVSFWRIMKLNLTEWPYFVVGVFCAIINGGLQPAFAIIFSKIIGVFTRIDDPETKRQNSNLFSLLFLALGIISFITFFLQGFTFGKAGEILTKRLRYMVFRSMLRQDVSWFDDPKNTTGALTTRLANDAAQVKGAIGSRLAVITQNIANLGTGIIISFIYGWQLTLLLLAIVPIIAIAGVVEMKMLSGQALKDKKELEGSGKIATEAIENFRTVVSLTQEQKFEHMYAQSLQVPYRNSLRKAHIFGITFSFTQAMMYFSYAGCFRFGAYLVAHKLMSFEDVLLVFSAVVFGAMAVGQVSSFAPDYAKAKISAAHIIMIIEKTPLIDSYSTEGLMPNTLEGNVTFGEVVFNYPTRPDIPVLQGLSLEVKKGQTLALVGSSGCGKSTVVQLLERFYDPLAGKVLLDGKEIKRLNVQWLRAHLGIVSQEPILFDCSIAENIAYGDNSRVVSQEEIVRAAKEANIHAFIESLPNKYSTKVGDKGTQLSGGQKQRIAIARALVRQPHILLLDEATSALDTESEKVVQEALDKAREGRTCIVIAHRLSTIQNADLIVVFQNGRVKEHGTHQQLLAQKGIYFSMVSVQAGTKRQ
T1 sequence (P08183 whole entry): as above

SMILES: COc1cccc2c1C(=O)c1c(O)c3c(c(O)c1C2=O)C[C@@](O)(C(=O)CO)C[C@@H]3O[C@H]1C[C@H](N)[C@H](O)[C@H](C)O1 [DOX, Doxorubicin]
- IC50 (KB-WT cells; [4]): 47.3 ± 19.7 nM
- FR (fold-resistance) (KB-WT cells; KB-WT, chemotherapeutic alone): 1.00
- IC50 (KB-VCR cells): 245 ± 39.8 nM
- FR (fold-resistance) (KB-VCR cells): 1.00

SMILES: CCCCCCCCNC(=NC#N)N1CCc2cc(OC)c(OC)cc2C1Cc1ccc(OC)c(OC)c1 (stereo not shown) [HZ08]
- IC50 (P-gp [1]): ~2440 nM and 2440 nM
- ATP consumed ([2]; VER 100μM + HZ08 0.625μM): 74.09±4.02 pmol ATP consumed/ μg P-gp / min
- Fold stimulation ([2]; VER 100μM + HZ08 0.625μM): 4.31
- ATP consumed ([2]; VER 100μM + HZ08 1.25μM): 73.10±1.34 pmol ATP consumed/ μg P-gp / min
- Fold stimulation ([2]; VER 100μM + HZ08 1.25μM): 4.26
- ATP consumed ([2]; VER 100μM + HZ08 5μM): 66.82±0.87 pmol ATP consumed/ μg P-gp / min
- Fold stimulation ([2]; VER 100μM + HZ08 5μM): 3.89
- ATP consumed ([2]; VER 100μM + HZ08 10μM): 63.11±1.71 pmol ATP consumed/ μg P-gp / min
- Fold stimulation ([2]; VER 100μM + HZ08 10μM): 3.67
- ATP consumed ([2]; VER 100μM + HZ08 20μM): 55.21±0.43 pmol ATP consumed/ μg P-gp / min
- Fold stimulation ([2]; VER 100μM + HZ08 20μM): 3.21
- ATP consumed ([2]; VER 100μM + HZ08 40μM): 41.25±3.00 pmol ATP consumed/ μg P-gp / min
- Fold stimulation ([2]; VER 100μM + HZ08 40μM): 2.40
- ATP consumed ([2]; VER 100μM + HZ08 80μM): 34.48±1.56 pmol ATP consumed/ μg P-gp / min
- Fold stimulation ([2]; VER 100μM + HZ08 80μM): 2.01
- ATP consumed ([2]; VER 100μM + HZ08 […]): 69.42±1.31 pmol ATP consumed/ μg P-gp / min
- Fold stimulation ([2]; VER 100μM + HZ08 […]): 4.04
- cytotoxicity as single agent (KB-WT cells; KB-WT, CCK-8, concentrations up to 20μM): no cytotoxicity
- FR of DOX (KB-WT cells; KB-WT, DOX + 5 μM modulator): 0.83
- FR of DOX (KB-WT cells; KB-WT, DOX + 10 μM modulator): 1.19
- FR of PTX (KB-WT cells; KB-WT, PTX + 5 μM modulator): 1.97
- FR of PTX (KB-WT cells; KB-WT, PTX + 10 μM modulator): 2.68
- FR of VCR (KB-WT cells; KB-WT, VCR + 5 μM modulator): 1.65
- FR of VCR (KB-WT cells; KB-WT, VCR + 10 μM modulator): 3.67
- cytotoxicity as single agent (KB-VCR cells; CCK-8, concentrations up to 20μM): no cytotoxicity
- FR of DOX (KB-VCR cells; DOX + 5 μM modulator): 3.84
- FR of DOX (KB-VCR cells; DOX + 10 μM modulator): 4.78
- FR of PTX (KB-VCR cells; PTX + 5 μM modulator): 120.06
- FR of PTX (KB-VCR cells; PTX + 10 μM modulator): 131.04
- FR of VCR (KB-VCR cells; VCR + 5 μM modulator): 173.46
- FR of VCR (KB-VCR cells; VCR + 10 μM modulator): 246.35
- mean tumor volume (KB-WT xenografts; [5]): 1193.11±84.95 mm^3
- tumor weight (KB-WT xenografts; [5]): 1.050 ± 0.080 g
- mean tumor volume (KB-WT xenografts; [6]): 872.92±301.72 mm^3
- tumor weight (KB-WT xenografts; [6]): 0.845 ± 0.183 g
- mean tumor volume (KB-VCR xenografts; [5]): 1536.36±190.04 mm^3
- tumor weight (KB-VCR xenografts; [5]): 1.222 ± 0.200 g
- tumor inhibition (tumor volume) (KB-VCR xenografts; 5 mg/kg modulator + VCR 2 mg/kg, compared with 2 mg/kg): a higher tumor inhibition was observed
- tumor weight (KB-VCR xenografts; [6]): 0.954 ± 0.175 g

SMILES: CC(=O)O[C@H]1C(=O)[C@@]2(C)[C@H]([C@H](OC(=O)c3ccccc3)[C@]3(O)C[C@H](OC(=O)[C@H](O)[C@@H](NC(=O)c4ccccc4)c4ccccc4)C(C)=C1C3(C)C)[C@]1(OC(C)=O)CO[C@@H]1C[C@@H]2O [PTX, paclitaxel]
- IC50 (KB-WT cells; [4]): 3.7 ± 0.9 nM
- FR (fold-resistance) (KB-WT cells; KB-WT, chemotherapeutic alone): 1.00
- IC50 (KB-VCR cells): 194 ± 17.7 nM
- FR (fold-resistance) (KB-VCR cells): 1.00

SMILES: CC[C@]1(O)C[C@H]2CN(CCc3c([nH]c4ccccc34)[C@@](C(=O)OC)(c3cc4c(cc3OC)N(C=O)[C@H]3[C@@](O)(C(=O)OC)[C@H](OC(C)=O)[C@]5(CC)C=CCN6CC[C@]43[C@@H]65)C2)C1 [VCR, Vincristine]
- Papp A→B at 90 min, 1 μM (P-gp [3]): 0.32 ± 0.1 ×10⁻⁶ cm/s
- Papp B→A at 90 min, 1 μM (P-gp [3]): 1.99 ± 0.28 ×10⁻⁶ cm/s
- IC50 (KB-WT cells): ~1.5 nM
- IC50 (KB-WT cells; [4]): 1.5 ± 0.2 nM
- IC50 (KB-VCR cells): 619 ± 158 nM
- mean tumor volume (KB-WT xenografts; VCR 2 mg/kg weekly i.v. alone): 1206.41±132.53 mm^3
- tumor weight (KB-VCR xenografts; VCR 2 mg/kg alone): 1.623 ± 0.233 g
- mean tumor volume (KB-VCR xenografts; VCR 2 mg/kg weekly i.v. alone): 2009.99±24.57 mm^3

SMILES: COc1ccc(CCN(C)CCCC(C#N)(c2ccc(OC)c(OC)c2)C(C)C)cc1OC (stereo not shown) [VER, verapamil]
- FR of DOX (KB-WT cells; KB-WT, DOX + 10 μM modulator): 1.27
- FR of PTX (KB-WT cells; KB-WT, PTX + 10 μM modulator): 2.03
- FR of VCR (KB-WT cells; KB-WT, VCR + 10 μM modulator): 1.83
- FR of DOX (KB-VCR cells; DOX + 10 μM modulator): 3.21
- FR of PTX (KB-VCR cells; PTX + 10 μM modulator): 20.6
- FR of VCR (KB-VCR cells; VCR + 10 μM modulator): 82.74
